This assay has as its system CEM cells HIV-1 protection, formazan growth assay. Description: NCI AIDS Antiviral Assay. Particulars: for IC50: measured here: growth of uninfected CEM cells. An outline of the steps:
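Human CEM cells, uninfected and HIV-1-infected, received five drug concentrations, and growth was read by soluble formazan assay. Compounds giving at least 50% protection were retested; reproducible 100% protection defined confirmed active.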

The source made the active and inactive calls.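 The calls were made as follows: active = compounds giving half or more protection of infected cells from virus-caused growth loss, again on retest; inactive = the rest.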 Where a SMILES comes first, the peptide text is derived from it.

For `CCC[CH2][Sn]([CH2]CCC)([O]C(=O)/C=C/c1ccccc1F)[O]C(=O)/C=C/c1ccccc1F`, the EC50 – broadly, the concentration giving half of the maximal effect – is over 9.33 µM and the IC50 (as a rule, the concentration that gives 50% inhibition) is over 9.33 µM.

With `[O-][n+]1nc(N2CCOCC2)nc2ccccc21`, the EC50 was over 200 µM and the IC50 was over 200 µM.

With `CSc1c2c(C)n[nH]c2nn1-c1ccccc1`, the EC50 was over 200 µM and the IC50 was 12.3 µM.

In the case of `CC(C)=CC(=O)c1c(C(=O)O)nc2ccccc2[n+]1[O-]`, the result was inactive.

`C=CCC(NCc1ccccc1)[C@H](OCc1ccccc1)[C@@H]1COC(C)(C)O1` (stereo not given in full): the EC50 is over 200 µM and the IC50 is over 200 µM.

Consider `OCCCNc1ccnc2cc(Cl)ccc12`, for which the EC50 is over 912 µM and the IC50 was found to be 81.3 µM.

On to `CCN(CC)CCNC(=O)c1cn2c(ccc3sc4ccccc4c(=O)c32)n1`, for which the EC50 was over 20 µM and the IC50 was found to be 1.1 µM.

As for `Cc1cccc2c1[nH]c1[nH]c(=O)[nH]c(=O)c12`, the EC50 was over 200 µM and the IC50 was found to be 151 µM.

For `O=C(/C=C/c1cccs1)c1ccc(Cl)cc1`, the result was inactive.

Turning to `c1ccc(C2CCCNCC2)cc1` (stereo not given), the result was inactive.

With `CCC(C)C(NC(=O)C(CCC(N)=O)NC(=O)C(CCCCN)NC(=O)C(CO)NC(=O)C(CC(C)C)NC(=O)C(Cc1ccc(O)cc1)NC(=O)C(C)N)C(=O)NC(C)C(=O)NC(CO)C(=O)NC(CC(N)=O)C(=O)O` (stereo not given) (H-AYLSKQIASN-OH; configuration not given here), the EC50 was over 57.5 µM and the half-maximal inhibitory concentration (IC50) is over 57.5 µM.

Regarding `NNC(=S)N/N=C(\C(=O)Nc1cccc(O)c1)C1C(=O)NC(=S)NC1=O`, the EC50 was over 631 µM and the IC50 is 447 µM.

With `O=c1c2ccccc2n2n1Cc1ccccc1C2`, the EC50 is over 200 µM and the IC50 was found to be 102 µM.

`CCn1cc(/C=C/C(C)c2cn(CC)c(=O)[nH]c2=O)c(=O)[nH]c1=O` (stereo not given): the result was inactive.

Take `O=C(/C=C\c1ccccc1)Oc1ccc(/C=C2\CCC/C(=C\c3ccc(OC(=O)/C=C\c4ccccc4)cc3)C2=O)cc1`: the EC50 was over 100 µM and the IC50 was over 100 µM.

As to `O=C(c1ccc(NCN2C(=O)CCC2=O)cc1)c1ccc(NCN2C(=O)CCC2=O)cc1`, the EC50 is over 30.2 µM and the half-maximal inhibitory concentration (IC50) is over 30.2 µM.

For `O=[N+]([O-])c1cccc2nc3ccccc3c(NCCCn3ccnc3[N+](=O)[O-])c12`, the EC50 is over 0.2 µM and the IC50 was found to be 0.0457 µM.

As to `Cc1cc(=O)n2[nH]nnc2n1`, the EC50 is over 200 µM and the IC50 is over 200 µM.

As to `CCOC(=O)COc1c(C)cc(SSc2cc(C)c(OCC(=O)OCC)c(C)c2)cc1C`, the EC50 was over 200 µM and the IC50 was determined as 12 µM.

Take `C=CCNC(=S)Nc1ccccn1`: the EC50 is over 200 µM and the concentration for half-maximal inhibition (IC50) was over 200 µM.

On to `CC1(C)OC[C@@H](C[C@H](O)COCc2ccccc2)O1`, for which the EC50 is over 200 µM and the half-maximal inhibitory concentration (IC50) is over 200 µM.

In the case of `CCOC/N=C(/N)NC#N`, the EC50 was over 631 µM and the half-maximal inhibitory concentration (IC50) is over 631 µM.

As to `Cn1c2ccccc2c(=NNc2ccc(C(=O)O)cc2)c2ccccc21`, the EC50 was over 200 µM and the IC50 was 13.8 µM.

Regarding `CC1(C)CC(=O)C2=C(C1)NC(SSC1=C(C#N)C(c3ccccc3)C3=C(CC(C)(C)CC3=O)N1)=C(C#N)C2c1ccccc1` (stereo not given), the EC50 is over 112 µM and the IC50 was found to be 15.5 µM.

In the case of `C=CCc1cc(CN2CCN(C)CC2)c(O)c(OC)c1`, the EC50 is over 200 µM and the 50% inhibitory concentration (IC50) is over 200 µM.

As to `CC1=CCC(C)=Nc2nc3ccccc3n21`, the EC50 is over 200 µM and the 50% inhibitory concentration (IC50) was over 200 µM.

In the case of `Cc1ncc([N+](=O)[O-])n1CCNC(=O)CCCCCn1ccnc1[N+](=O)[O-]`, the result was inactive.

With `C/C(CN1C(=O)c2ccccc2C1=O)=N\NS(=O)(=O)c1ccccc1`, the EC50 was over 20.4 µM and the IC50 is over 20.4 µM.

As for `Cc1ccnc2c1C(=O)C(=O)C=C2N1CCCC1`, the outcome was inactive.

Turning to `CC1CC2=C(C(=O)O1)C(c1ccccc1)Nc1ccccc1N2` (stereo not given), the EC50 was over 427 µM and the IC50 was 81.3 µM.

Consider `Cc1ccc2c(c1)nc1c3ccccc3[nH]n21`, for which the EC50 was over 5.89 µM and the IC50 is over 5.89 µM.

Regarding `CC(C)C1=CC2=CC=C3C(C)(C)CC(=O)OC3(C)CC2=C(O)C1=O` (stereo not given), the outcome was inactive.

`CC(=O)/C(=C/c1ccccc1F)C(=O)c1ccccc1`: the EC50 is over 26.9 µM and the IC50 was over 26.9 µM.

For `COc1cccc2sc(-n3c(C)nc4ccccc4c3=O)nc12`, the EC50 was over 200 µM and the half-inhibitory concentration (IC50) is over 200 µM.

Turning to `Cc1cn(CCCCCCOC(=O)NC(CCCNC(N)=O)C(=O)O)c(=O)[nH]c1=O` (stereo not given), the EC50 is over 200 µM and the IC50 is over 200 µM.

Regarding `CN(NC(=O)CCCl)C1=NCCCCN1`, the EC50 is over 200 µM and the 50% inhibitory concentration (IC50) is over 200 µM.

Consider `CCOC(=O)c1cnc2ccc(C)cn2c1=O`, for which the result was inactive.

In the case of `NC(=O)c1ccccc1NC(=O)C(=O)C(C(=O)c1ccc(Cl)c(Cl)c1)C1OC(=O)c2ccccc21` (stereo not given), the EC50 is over 339 µM and the IC50 is 21.4 µM.

In the case of `COC1/C=C/OC2(C)Oc3c(C)c(O)c4c(O)c(c(C=NN5C(C)CC(Cc6ccccc6)CC5C)c(O)c4c3C2=O)NC(=O)/C(C)=C/C=C/C(C)C(O)C(C)C(O)C(C)C(OC(C)=O)C1C` (stereo not given), the EC50 is over 200 µM and the 50% inhibitory concentration (IC50) was 8.71 µM.

Take `OC(C1CCCCCCCCCC1)C(O)C1CCCCCCCCCC1` (stereo not given): the EC50 is over 200 µM and the IC50 was over 200 µM.

In the case of `O=C1C=C(O)c2ccccc2C1=O`, the EC50 is over 200 µM and the IC50 came out at 120 µM.

Consider `C[Si](C)(C)C#CC#C[Si](C)(C)C.[C-]#[O+].[C-]#[O+].[C-]#[O+].[C-]#[O+].[C-]#[O+].[C-]#[O+].[C-]#[O+].[C-]#[O+].[C-]#[O+].[C-]#[O+].[C-]#[O+].[C-]#[O+].[Co].[Co].[Co].[Co]`, for which the EC50 was over 1.91 µM and the 50% inhibitory concentration (IC50) is over 1.91 µM.

Regarding `CCOc1ccc(NC(=S)NC=C(C(N)=O)C(N)=O)cc1`, the EC50 was over 200 µM and the half-maximal inhibitory concentration (IC50) is over 200 µM.

Take `CCOC(=O)c1c(N)sc(C)c1C`: the EC50 was over 200 µM and the IC50 is 117 µM.

For the compound `Cc1nc2cnc(Nc3ccccc3)nc2n(-c2ccccc2)c1=O`, the EC50 is over 200 µM and the IC50 was over 200 µM.

As for `CCOC(=O)C(=Cn1c(=S)[nH]c2ccc([N+](=O)[O-])cc21)C(=O)OCC`, the EC50 is over 200 µM and the IC50 is 77.6 µM.

As to `Cc1ccc2c(c1)nc1c3ccccc3nc(-c3ccccc3N)n21`, the EC50 was over 28.8 µM and the IC50 was over 28.8 µM.

As for `O=C(NC12CC3CC(CC(C3)C1)C2)C(=O)c1c[nH]c2ccc(Br)cc12`, the EC50 was over 200 µM and the IC50 was 25.7 µM.

With `Cc1ccc(N2C(=O)C(Cl)=C(Cl)C2=O)cc1`, the result was inactive.

Take `Cc1ccc2c(c1)C(=O)C1(C2)Cc2cccc(C)c2C1=O` (stereo not given): the EC50 is over 200 µM and the IC50 was over 200 µM.

For the compound `OCC1OC(n2cnc3cccnc32)CC1O` (stereo not given), the EC50 was over 200 µM and the IC50 is over 200 µM.

Turning to `CCOC(=O)c1sc2nc(SC)nc3c2c1NCN3C`, the EC50 was over 200 µM and the concentration for half-maximal inhibition (IC50) was over 200 µM.
